Measured values from patent US20090124579A1, “Systems and Methods For Determination of Compounds for Stimulation or Inhibition of Neocalcification” (UNIVERSITY OF SOUTH CAROLINA, priority 2007, published 2009).

Assays:
[1] = test system: matrix vesicles (MV); experiment: Mineralization of matrix vesicles (MV) incubated in synthetic cartilage lymph (SCL), microplate-based biomineralization assay; type: biochemical, chicken
Experimental: Zn^2+ causes Anx-5 to bind to acidic phospholipids with even higher affinity than does Ca^2+; however, its effect is very different.
(§1) Mineral formation was measured by incubating MVs (40 μg protein/ml) or complex (60 μg/ml) in synthetic cartilage lymph and assayed by a microplate-based biomineralization modeling system and assay as described herein. MVs were isolated from chicken GP cartilage. The PS.Ca.Pi complex was synthesized from emulsions of PS prepared by sonication in a synthetic intracellular phosphate buffer. Where indicated, pure native placental human annexin 5 (Anx-H5) was added.
(§2) Incubation was in pH 7.5 SCL at 37° C., which follows a characteristic sigmoid pattern in which a definable lag period precedes discernible mineral formation. There then follows a period of rapid mineral formation, a transient period when the rate declines, and an extended period at a progressively slower rate.

[2] = test system: ACP; details: low levels of Zn^2+
[3] = biological target: T1, Anx-H5-containing ACP (Homo sapiens, UniProt P08758); experiment: Mineral formation by Anx-H5-containing ACP in SCL; type: biochemical; details: low levels (5 μM) of Zn^2+ in SCL
T1 sequence (P08758 2-320 limits assumed): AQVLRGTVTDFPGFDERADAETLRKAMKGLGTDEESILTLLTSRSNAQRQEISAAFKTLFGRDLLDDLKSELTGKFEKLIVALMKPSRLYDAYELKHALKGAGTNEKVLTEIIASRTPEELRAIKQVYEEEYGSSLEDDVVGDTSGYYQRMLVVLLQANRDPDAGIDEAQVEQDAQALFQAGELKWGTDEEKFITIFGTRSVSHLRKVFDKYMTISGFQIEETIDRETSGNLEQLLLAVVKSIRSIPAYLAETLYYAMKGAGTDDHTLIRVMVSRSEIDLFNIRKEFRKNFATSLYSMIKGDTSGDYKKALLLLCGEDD

[4] = biological target: T2, Anx-A5 Ca^2+ channel (Gallus gallus, UniProt P17153); experiment: Ca^2+ channel currents of MV or purified Anx-A5 fused with planar PS.PE (1:1) bilayers; type: biochemical, avian; details: MV or purified Anx-A5 in planar PS.PE (1:1) bilayers
T2 construct: from tissue; host or cells: avian cartilage
Experimental: To determine if the inhibitory effect of Zn^2+ on MV calcification was due to interaction with Anx-A5, experiments were conducted to investigate the nature of the MV Ca^2+ channel. […] When MVs or purified Anx-A5 were fused with planar PS.PE (1:1) bilayers, a multiconductance Ca^2+ channel was evident, as shown in FIG. 6A. […] The finding that Anx-A5 Ca^2+ channel gating is modulated by Zn^2+ raised the possibility that it may be an important regulator of MV Ca^2+ channel activity in vivo. Thus, it was desirable to determine how Anx-5 helps promote MV mineralization and how Zn^2+ affects the structure of Anx-A5.

[5] = biological target: T3, Anx-H5.PS.Ca.Pi complexes (Homo sapiens, UniProt P08758); experiment: Kinetics of mineralization of Anx-H5 containing nucleators with or without phosphoserine; type: biochemical; details: 100 μM phosphoserine; both Anx-H5-containing ACP and PS.Ca.Pi complexes
T3 sequence (P08758 2-320 limits assumed): T1 sequence (P08758 2-320 limits assumed)
Text: Phosphoserine was examined as a test compound. Phosphoserine can occupy PS head-group binding sites in Anx-H5, acting as a competitive inhibitor of PS binding. […] Since Anx-H5 trimer formation occurs only on phospholipid bilayers, phosphoserine competes for PS binding sites in Anx-H5, interfering with trimer formation, and thereby inhibiting de novo mineralization.
FIG. 18 illustrates the results of in vitro assays showing the delay of onset of mineralization of Anx-H5 containing nucleators by incorporation of O-phospho-L-serine

[6] = test system: PS.PE.Ca.Pi and PS.Ca.Pi complexes; experiment: Mineral formation by synthetic PS and PE containing Ca.Pi complexes in SCL; type: biochemical
Experimental: FIG. 15 illustrates the effect of Anx-H5 on mineral formation by synthetic PS and PE containing Ca.Pi complexes as determined through in vitro modeling of the system. Mineralization was measured by incubating the various complexes as shown (about 50 μg/ml) in SCL using a microplate-based biomineralization assay system. The complexes were prepared as described above in Example 3. Emulsions of PS or PS.PE (1:1) were generated by sonication to generate approximately 60 nm vesicles. Anx-H5 was added before CaCl2 was titrated to form the complex.

[7] = test system: PS.Ca.Pi complex; experiment: Mineral formation by synthetic PS.Ca.Pi complex seeded into SCL, microplate-based biomineralization assay; type: biochemical
Experimental: as §1, §2
Results are illustrated in FIGS. 9A and 9B. […] To document that the effect of avian Anx-A5 could be equally matched by human Anx-H5, the kinetics of mineral formation were examined when both avian MV and the Mg^2+-containing PS.Ca.Pi complex were seeded into SCL in the absence and presence of purified native human placental Anx H5. […]

c1cnc2c(c1)ccc1cccnc12 [1,10-phenanthroline, reference compound]
ability of Zn^2+-inhibited MV to mineralize ([1]; metal ion chelator added to Zn^2+-inhibited MV): restored the ability to mineralize

[Zn+2] [Zn^2+, zinc]
MV mineralization ([1]; low levels of Zn^2+ (5 μM) in SCL): completely inhibit
ACP-induced mineral formation [2]: weak inhibition
mineral formation by Anx-H5-containing ACP [3]: marked inhibition
Ca^2+ currents [4]: blocked

N[C@@H](COP(=O)(O)O)C(=O)O [phosphoserine, O-phospho-L-serine]
time needed for onset of mineralization [5]: almost tripling

Anx-H5: pure native placental human annexin 5
ability of MV to induce and propagate mineral formation ([1]; Anx-H5 added to freshly isolated MV): significantly enhanced
effect on PS.PE.Ca.Pi-induced mineralization ([6]; Anx-H5 incorporated into PS.PE.Ca.Pi complex): overcome this inhibitory effect of PE
effect on mineral formation of incorporation into PS.Ca.Pi complex ([6]; complexes about 50 μg/ml in SCL): obvious stimulatory effect
mineral formation induced by protein alone ([7]; Anx-H5 by itself added to SCL, without PS): failed to induce any mineral formation

phosphatidylethanolamine [PE, reference compound]
ability of PS.Ca.Pi to nucleate mineral formation ([6]; equimolar amounts incorporated into PS.Ca.Pi (PS.PE 1:1)): profound inhibition

B1: Anx-A5: avian annexin 5 (avian cartilage) (protein, UniProt P17153 1-321, looked up)
Annexin A5: MAKYTRGTVTAFSPFDARADAEALRKAMKGMGTDEETILKILTSRNNAQRQEIASAFKTLFGRDLVDDLKSELTGKFETLMVSLMRPARIFDAHALKHAIKGAGTNEKVLTEILASRTPAEVQNIKQVYMQEYEANLEDKITGETSGHFQRLLVVLLQANRDPDGRVDEALVEKDAQVLFRAGELKWGTDEETFITILGTRSVSHLRRVFDKYMTISGFQIEETIDRETSGDLEKLLLAVVKCIRSVPAYFAETLYYSMKGAGTDDDTLIRVMVSRSEIDLLDIRHEFRKNFAKSLYQMIQKDTSGDYRKALLLLCGGDDE
activation of PS.Ca.Pi complex ([7]; complex prepared from Mg^2+-containing phosphate buffer): synergistically activates
